Measured values reported in patent US20040176468A1 (Wyeth, priority 1999, published 2004).
Where a name gives a salt, the structure may show the parent alone.

Molecular target: NE uptake (Rattus norvegicus, UniProt Q63380)
Assay: Neurotransmitter uptake inhibition: NE uptake, crude synaptosomal preparation
Format: biochemical
Conditions: rat cortex crude synaptosomal preparation; for IC50: 0.1 μM 3H-NE, 37° C. for 6 minutes
Method: Male Sprague-Dawley rats (180-260 g, Charles River) were used in all neurochemical assays. Rats were housed in temperature-controlled quarters on a 12 hr light/12 hr dark cycle with free access to food and water.
Neurotransmitter Uptake Inhibition
Uptake experiments were performed using a crude synaptosomal preparation made from the brain tissue of adult male Sprague-Dawley rats. The cortex of 1 rat for NE and 5-HT uptake was removed on ice and homogenized in 20 volumes of 0.32 M sucrose/g tissue weight using a Potter-Elvehjem teflon homogenizer (3 strokes at 840 rpm). The homogenate was then centrifuged for 12 minutes at 1,000×g at 0-4° C. The resulting supernatant was decanted into a chilled glass beaker and kept on ice until assayed. Protein concentration was determined by the method of Lowry et al. (1).
For these experiments, all compounds were run in duplicate in concentrations of 0.003-30.0 μM. Each tube received buffer (790 μl in drug tubes, 800 μl in control tubes), 10 μl of drug or standard. (0.1 μM DMI for NE uptake and 3.0 μM zimelidine HCl for 5-HT uptake), 100 μl isotope (0.1 μM ^3H—NE and 0.05 μM ^14C-5-HT), and 100 μl tissue. Tubes were incubated at 37° C. for 6 minutes. Incubation was terminated by the addition of 2.5 ml buffer followed by vacuum filtration using a Brandel filtration manifold with Whatman GF/B glass fiber filters and a second wash with 2.5 ml buffer. Filters were added to 10 ml Hydrofluor, shaken for 15 minutes and counted in a Packard 460CD scintillation counter equipped with dual-label dpm data reduction. Results were expressed as pmol uptake/mg protein/min.

Sequence of NE uptake (Q63380 1-617): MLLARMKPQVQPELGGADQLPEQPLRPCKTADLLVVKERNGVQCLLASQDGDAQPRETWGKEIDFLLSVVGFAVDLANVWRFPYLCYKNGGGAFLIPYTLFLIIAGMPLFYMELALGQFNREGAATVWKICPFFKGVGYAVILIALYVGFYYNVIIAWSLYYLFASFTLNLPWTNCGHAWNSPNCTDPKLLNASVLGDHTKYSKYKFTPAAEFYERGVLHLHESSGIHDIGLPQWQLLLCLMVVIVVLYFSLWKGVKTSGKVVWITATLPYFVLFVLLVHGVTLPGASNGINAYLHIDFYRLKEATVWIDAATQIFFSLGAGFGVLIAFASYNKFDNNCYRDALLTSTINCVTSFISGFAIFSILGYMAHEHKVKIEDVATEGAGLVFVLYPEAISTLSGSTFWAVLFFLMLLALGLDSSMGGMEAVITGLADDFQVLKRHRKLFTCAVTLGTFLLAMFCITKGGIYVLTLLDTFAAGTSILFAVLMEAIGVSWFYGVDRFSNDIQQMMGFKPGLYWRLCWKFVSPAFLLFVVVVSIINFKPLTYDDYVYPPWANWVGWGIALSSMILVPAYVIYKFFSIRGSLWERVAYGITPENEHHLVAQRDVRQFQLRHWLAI

**Q.** For `CN(C)CC(c1ccc(O)cc1)C1(O)CCCCC1` (racemic) [O-Desmethyl venlafaxine, 4-[1-(2-dimethylamino)-2-(1-hydroxycyclohexyl)-ethyl]-phenol], which inhibition at 0.3 µM (at 0.3 μM) is on record?
**A.** 75%

**Q.** Which IC50 does the source give for `CN(C)C[C@H](c1ccc(O)cc1)C1(O)CCCCC1` [(+)O-Desmethyl venlafaxine, S (+)-4-[2-(Dimethylamino)-1-(1-hydroxycyclohexyl)ethyl]phenol fumarate hydrate salt] here?
**A.** 720 nM

**Q.** How did the IC50 turn out when `CN(C)C[C@@H](c1ccc(O)cc1)C1(O)CCCCC1` [(−)O-Desmethyl venlafaxine, R(−)-4-[2-(Dimethylamino)-1-(1-hydroxycyclohexyl)ethyl]phenol fumarate hydrate salt] was run?
**A.** 270 nM
